How the values were obtained:
Type in all cases: physicochemical
[1] = Stability of nBTPT in solution with added alkaline compound (HPLC nBTPT content); details: closed plastic containers
Source text: Lab scale experiments with nBTPT in solution: • An aqueous solution of nBTPT was made by dissolving 3 g nBTPT powder in 1 L water. In a next step an alkaline compound could be added. • A solution of 17.5% nBTPT in PG was made by dissolving step by step 17.5 g nBTPT powder in 82.5 g PG. In a next step, an alkaline compound could be added. • The commercial liquid nBTPT formulation Agrotain® Ultra was mixed with and/or without the presence of an alkaline stabilizer
(§1) Closed plastic container at room temperature (20° C.)
(§2) 50° C. closed plastic container
(§3) HPLC analysis of nBTPT is done as described in the procedure CEN 15688-2007.
In a first experiment, a solution of 17.5% nBTPT in PG was made and in a next step an alkaline compound was added. Subsequently, the solutions were stored in closed plastic containers for 5 days at room temperature (20° C.) and subsequently 7 days at 50° C. and the decomposition of nBTPT was followed.
In a second experiment, an alkaline compound was added to Agrotain® Ultra. Subsequently, the nBTPT solutions were stored in closed plastic containers for 5 days at room temperature (20° C.) and the decomposition of nBTPT was followed.
In a third experiment, an aqueous solution of 3.0 g nBTPT in 1 L water was made and in a next step an alkaline compound was added. Subsequently, the aqueous solutions were stored in closed plastic containers for 5 days at room temperature (20° C.) and the decomposition of nBTPT was followed.

[2] = Stability of nBTPT melt-mixed in urea granules during storage (HPLC nBTPT content)
Method: For pilot scale experiments applying nBTPT in urea, nBTPT, as powder or as liquid formulations, was mixed in urea in the following way: nBTPT was added to urea melt, with and/or without the presence of an alkaline stabilizer and subsequently, this mixture was granulated in a fluidized bed granulator.
nBTPT in urea granules, with and/or without the presence of an alkaline stabilizer, were produced in the urea pilot plant in Sluiskil (Yara International ASA). This pilot plant has a batch capacity—after sieving—of about 50 kg of on-spec product. It basically consists of a stirred urea preparation vessel with an active volume of about 150 litres and a fluidized bed granulator of the UFT-type, equipped with a spraying nozzle of the spiral-type or HFT-type (EP 1701798 B1, 2005, Yara International ASA).
The samples were stored under several conditions, dependent on the type of samples:
as §1
Open to air at 20° C. with a relative humidity of 80%
For some samples, an accelerated stability test was done storing these samples at elevated temperatures:
40° C. closed plastic container
as §2
(§4) 70° C. closed plastic container
as §3
In the first experiment, 500 ppm nBTPT powder was added into urea melt, with and/or without the presence of an alkaline stabilizer, and in a next step this melt composition was converted into urea granules in a fluidized bed granulator. Subsequently, the granules were stored for 98 days at 40° C. in closed plastic containers and the decomposition of nBTPT was followed.
In a second experiment, the effect of other alkaline stabilizers such as CaO and CaCO3 was shown in comparison with NaOH. 500 ppm nBTPT powder was added into urea melt, containing an alkaline stabilizer, and in a next step, this melt composition was converted into urea granules in a fluidized bed granulator. Subsequently, the granules were stored for 109 days at 50° C. in closed plastic containers and the decomposition of nBTPT was followed.
On top of that, the granules were also stored for 1564 days (more than 4 years!) at room temperature (20° C.) in closed plastic containers and the decomposition of nBTPT was followed. […] With the addition of 1% CaO or CaCO3 a recovery of nBTPT higher than 40% was found after a long storage period of more than 4 years at room temperature.
In a third experiment, 500 ppm nBTPT powder was added into a urea melt, with and/or without the presence of 0.1% B as borax, and in a next step this melt composition was converted into urea granules in a fluidized bed granulator. Subsequently, the granules were stored for 57 days at 20° C./80% R.H. in open plastic containers and the decomposition of nBTPT was followed.
In a fourth experiment, 600 ppm nBTPT powder was added into a urea melt, with and/or without the presence of an alkaline stabilizer, and in a next step this melt composition was converted into urea granules in a fluidized bed granulator. Subsequently, the granules were stored for 15 days at 70° C. in closed plastic containers and the decomposition of nBTPT was followed.

[3] = Stability of nBTPT applied on moisturized urea granules during storage (HPLC nBTPT content); details: vs no stabilizer, closed plastic containers, 70° C., 15 days (FIG. 6)
Method: For lab scale experiments for applying nBTPT on urea, nBTPT, as powder or as liquid formulations, was applied onto urea by adding 1.2 kg of urea to a lab scale drum. In a next step, the nBTPT material, with and/or without the presence of an alkaline stabilizer, was slowly added. A residence time of 10 minutes was applied and the rotating speed of the drum was consequently the same in each experiment. Larger scale experiments with amounts up to 40 kg of fertilizer material were performed in a concrete mixer.
as §4, §3
600 ppm nBTPT powder was mixed with and/or without the presence of an alkaline stabilizer and subsequently added on urea granules, which were moisturized from 0.20% H2O to 0.60% H2O. This moisturization was done to create a higher moisture level of the urea granules to simulate moisture take up during storage in market conditions.
Subsequently, the urea granules were stored for 15 days at 70° C. in closed plastic containers and the decomposition of nBTPT was followed.

## CCCCNP(N)(N)=S [nBTPT, N-(n-butyl) thiophosphoric triamide]
[1]; 17.5% nBTPT in propylene glycol (PG) + 5% CaO vs none, 5 days at 20° C. then 7 days at 50° C. (FIG. 7)
  effect on the stability of nBTPT in solution: negative effect
[1]; 17.5% nBTPT in propylene glycol (PG) + 5% NaOH vs none, 5 days at 20° C. then 7 days at 50° C. (FIG. 7)
  effect on the stability of nBTPT in solution: negative effect
[1]; aqueous solution 3 g nBTPT/L water + 1% CaO vs none, 5 days at 20° C. (FIG. 9)
  effect on the stability of nBTPT in solution: negative effect
[1]; aqueous solution 3 g nBTPT/L water + 1% Na2CO3 vs none, 5 days at 20° C. (FIG. 9)
  effect on the stability of nBTPT in solution: negative effect
[1]; aqueous solution 3 g nBTPT/L water + 1% NaHCO3 vs none, 5 days at 20° C. (FIG. 9)
  effect on the stability of nBTPT in solution: negative effect
[1]; aqueous solution 3 g nBTPT/L water + 1% NaOH vs none, 5 days at 20° C. (FIG. 9)
  effect on the stability of nBTPT in solution: negative effect
[2]; 500 ppm nBTPT powder in urea + 1% CaCO3, compared with urea + 500 ppm NaOH, closed plastic containers, 50° C., 109 days (FIG. 2)
  stability of nBTPT in urea: even higher stability
[2]; 500 ppm nBTPT powder in urea + 1% CaCO3, compared with urea + 500 ppm NaOH, closed plastic containers, room temperature (20° C.), 1564 days (FIG. 3)
  stability of nBTPT in urea: even higher stability
[2]; 500 ppm nBTPT powder in urea + 1% CaO, compared with urea + 500 ppm NaOH, closed plastic containers, 50° C., 109 days (FIG. 2)
  stability of nBTPT in urea: even higher stability
[2]; 500 ppm nBTPT powder in urea + 1% CaO, compared with urea + 500 ppm NaOH, closed plastic containers, room temperature (20° C.), 1564 days (FIG. 3)
  stability of nBTPT in urea: even higher stability
[2]; 500 ppm nBTPT powder in urea + NaOH (200, 500, 1000 ppm) vs no NaOH, closed plastic containers, 40° C., 98 days, stability increases with NaOH dosage (FIG. 1)
  effect on the stability of nBTPT in urea granules during storage: positive effect
[2]; 600 ppm nBTPT powder in urea + 1% CaCO3 vs no stabilizer, closed plastic containers, 70° C., 15 days (FIG. 5)
  effect on the stability of nBTPT in urea granules during storage: big positive effect
[2]; 600 ppm nBTPT powder in urea + 1% CaO vs no stabilizer, closed plastic containers, 70° C., 15 days (FIG. 5)
  effect on the stability of nBTPT in urea granules during storage: big positive effect
[2]; bagged conditions without the presence of a head space (exclusion of moisture and atmospheric gasses)
  stability of the urease inhibitor in the composition according to the invention: further increased
[2]; nBTPT powder in urea + 0.1% B as borax vs no borax, open plastic containers, 20° C./80% R.H., 57 days (FIG. 4)
  effect on the stability of nBTPT in urea granules during storage: big positive effect
[3]; [600 ppm nBTPT powder + 2600 ppm MgO] on urea moisturized from 0.20% to 0.60% H2O
  effect on the stability of nBTPT on urea granules during storage: positive effect
[3]; [600 ppm nBTPT powder + 6000 ppm CaCO3] on urea moisturized from 0.20% to 0.60% H2O
  effect on the stability of nBTPT on urea granules during storage: positive effect

— patent US11299435B2, “Urea-based composition and method for the manufacture thereof” (Yara International ASA, priority 2017, dated 2022)
